Results reported in PubChem BioAssay AID2060498 (Molecular Pharmacology Branch, DTP, NCI, 2025).
Blank lines part the entries; values can stand above or below the molecule they belong to.

Test system: 171881-019-R-J1-PDC tumor spheroids, viability
Assay: Anticancer human tumor 171881-019-R-J1-PDC patient-derived invasive breast carcinoma cell line growth inhibition [GQUAD]
Details: spheroids with HUVEC and MSC; for IC50: curve of first compound; for viability, T/C: stronger effect = lower value
In short: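 Multi-cell-type spheroids of tumor cells with HUVEC and mesenchymal stem cells, treated with drug combinations. Concentrations descend in half-log steps from near clinical Cmax, or from 10 microM where Cmax is unknown; viability read-out.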

[1] = second compound 0.0316 µM, first compound 0.0316 µM
[2] = second compound 0.0316 µM, first compound 0.1 µM
[3] = second compound 0.0316 µM, first compound 0.316 µM
[4] = second compound 0.0316 µM, first compound 1 µM
[5] = second compound 0.0316 µM, first compound 3.16 µM
[6] = second compound 0.0316 µM, first compound 10 µM
[7] = second compound 0.1 µM, first compound 0.0316 µM
[8] = second compound 0.1 µM, first compound 0.1 µM
[9] = second compound 0.1 µM, first compound 0.316 µM
[10] = second compound 0.1 µM, first compound 1 µM
[11] = second compound 0.1 µM, first compound 3.16 µM
[12] = second compound 0.1 µM, first compound 10 µM
[13] = second compound 0.316 µM, first compound 0.0316 µM
[14] = second compound 0.316 µM, first compound 0.1 µM
[15] = second compound 0.316 µM, first compound 0.316 µM
[16] = second compound 0.316 µM, first compound 1 µM
[17] = second compound 0.316 µM, first compound 3.16 µM
[18] = second compound 0.316 µM, first compound 10 µM
[19] = second compound 1 µM, first compound 0.0316 µM
[20] = second compound 1 µM, first compound 0.1 µM
[21] = second compound 1 µM, first compound 0.316 µM
[22] = second compound 1 µM, first compound 1 µM
[23] = second compound 1 µM, first compound 3.16 µM
[24] = second compound 1 µM, first compound 10 µM
[25] = second compound 3.16 µM, first compound 0.0316 µM
[26] = second compound 3.16 µM, first compound 0.1 µM
[27] = second compound 3.16 µM, first compound 0.316 µM
[28] = second compound 3.16 µM, first compound 1 µM
[29] = second compound 3.16 µM, first compound 3.16 µM
[30] = second compound 3.16 µM, first compound 10 µM
[31] = second compound 10 µM, first compound 0.0316 µM
[32] = second compound 10 µM, first compound 0.1 µM
[33] = second compound 10 µM, first compound 0.316 µM
[34] = second compound 10 µM, first compound 1 µM
[35] = second compound 10 µM, first compound 3.16 µM
[36] = second compound 10 µM, first compound 10 µM
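Note: spheroids exposed to compounds for 7 days.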
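Throughout, for viability, T/C: 100% = DMSO vehicle control viability.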

- IC50 (second compound 0.0316 µM): < 0.0316 µM
- IC50 (second compound 0.1 µM): < 0.0316 µM
- IC50 (second compound 0.316 µM): < 0.0316 µM
- IC50 (second compound 1 µM): < 0.0316 µM
- IC50 (second compound 3.16 µM): < 0.0316 µM
- IC50 (second compound 10 µM): < 0.0316 µM
Compound: CC(=O)O[C@H]1C(=O)[C@@]2(C)[C@H]([C@H](OC(=O)c3ccccc3)[C@]3(O)C[C@H](OC(=O)[C@H](O)[C@@H](NC(=O)c4ccccc4)c4ccccc4)C(C)=C1C3(C)C)[C@]1(OC(C)=O)CO[C@@H]1C[C@@H]2O + Cc1cnc(CNC(=O)c2c(=O)c3ccc(N4CCCN(C)CC4)nc3n3c2sc2ccccc23)cn1
- viability, T/C [1]: 37.4%
- viability, T/C [2]: 29.4%
- viability, T/C [3]: 27.8%
- viability, T/C [4]: 26%
- viability, T/C [5]: 24.2%
- viability, T/C [6]: 26.7%
- viability, T/C [7]: 43.9%
- viability, T/C [8]: 38%
- viability, T/C [9]: 31.3%
- viability, T/C [10]: 33.2%
- viability, T/C [11]: 31.9%
- viability, T/C [12]: 32.9%
- viability, T/C [13]: 51.2%
- viability, T/C [14]: 44.1%
- viability, T/C [15]: 39.5%
- viability, T/C [16]: 35%
- viability, T/C [17]: 37.1%
- viability, T/C [18]: 38.5%
- viability, T/C [19]: 51.9%
- viability, T/C [20]: 45.4%
- viability, T/C [21]: 47%
- viability, T/C [22]: 40.1%
- viability, T/C [23]: 45%
- viability, T/C [24]: 50.5%
- viability, T/C [25]: 51.9%
- viability, T/C [26]: 46.5%
- viability, T/C [27]: 47%
- viability, T/C [28]: 44.2%
- viability, T/C [29]: 50.8%
- viability, T/C [30]: 49.9%
- viability, T/C [31]: 46.6%
- viability, T/C [32]: 48.4%
- viability, T/C [33]: 46%
- viability, T/C [34]: 47.6%
- viability, T/C [35]: 50.3%
- viability, T/C [36]: 51.9%

- IC50 (second compound 0.0316 µM): > 10 µM
- IC50 (second compound 0.1 µM): > 10 µM
- IC50 (second compound 0.316 µM): > 10 µM
- IC50 (second compound 1 µM): > 10 µM
- IC50 (second compound 3.16 µM): > 10 µM
- IC50 (second compound 10 µM): > 10 µM
Compound: CCCS(=O)(=O)Nc1ccc(F)c(C(=O)c2c[nH]c3ncc(-c4ccc(Cl)cc4)cc23)c1F + Cc1cnc(CNC(=O)c2c(=O)c3ccc(N4CCCN(C)CC4)nc3n3c2sc2ccccc23)cn1
- viability, T/C [1]: 104%
- viability, T/C [2]: 95.3%
- viability, T/C [3]: 108%
- viability, T/C [4]: 112%
- viability, T/C [5]: 117%
- viability, T/C [6]: 69.3%
- viability, T/C [7]: 83%
- viability, T/C [8]: 95.2%
- viability, T/C [9]: 90.4%
- viability, T/C [10]: 102%
- viability, T/C [11]: 92.2%
- viability, T/C [12]: 54.9%
- viability, T/C [13]: 78%
- viability, T/C [14]: 78.8%
- viability, T/C [15]: 81.9%
- viability, T/C [16]: 78.7%
- viability, T/C [17]: 91.9%
- viability, T/C [18]: 52.1%
- viability, T/C [19]: 72.1%
- viability, T/C [20]: 66.5%
- viability, T/C [21]: 79.5%
- viability, T/C [22]: 69.5%
- viability, T/C [23]: 82.3%
- viability, T/C [24]: 59.6%
- viability, T/C [25]: 63.9%
- viability, T/C [26]: 61.8%
- viability, T/C [27]: 68.5%
- viability, T/C [28]: 66.6%
- viability, T/C [29]: 67.5%
- viability, T/C [30]: 53%
- viability, T/C [31]: 59.9%
- viability, T/C [32]: 62.1%
- viability, T/C [33]: 59.4%
- viability, T/C [34]: 68%
- viability, T/C [35]: 68.4%
- viability, T/C [36]: 51.8%
